Data on 38 compounds can be found in patent publication US10106542B2, “Substituted 6,7-dihydropyrazolo[1,5-a]pyrazines as negative allosteric modulators of mGluR2 receptors” (Janssen Pharmaceutica NV, priority 2013, dated 2018).

For the experiment, the target named is T1, human mGlu2 receptor (Homo sapiens, UniProt Q14416).
T1 construct: expressed in transfected cells; host or cells: CHO cells (membrane preparation)
Kind of experiment: [35S]GTPγS binding assay (mGluR2 negative allosteric modulation). It is filed as biochemical. Conditions: for IC50: read-out: GTPγS - hmGluR2 anGT pIC50 (converted); for Emax / GTPγS - hmGluR2 anGT Emax: relative maximal effect: maximal % inhibition relative to the control glutamate response; for Emax: read-out: GTPγS - hmGluR2 anGT Emax. The procedure:
1) [^35S]GTPγS binding assay
The [^35S]GTPγS binding assay is a functional membrane-based assay used to study G-protein coupled receptor (GPCR) function whereby incorporation of a non-hydrolysable form of GTP, [^35S]GTPγS (guanosine 5′-triphosphate, labelled with […] ^35S), is measured. The G-protein a subunit catalyzes the exchange of guanosine 5′-diphosphate (GDP) by guanosine triphosphate (GTP) and on activation of the GPCR by an agonist, [^35S]GTPγS, becomes incorporated and cannot be cleaved to continue the exchange cycle (Harper (1998) Current Protocols in Pharmacology 2.6.1-10, John Wiley & Sons, Inc.). […] Here we describe the use of the [^35S]GTPγS binding assay using membranes from cells transfected with the human mGlu2 receptor and adapted from Schaffhauser et al. (Molecular Pharmacology, 2003, […]) for the detection of the negative allosteric modulation (NAM) properties of the compounds of this invention.
CHO-cells were cultured to pre-confluence and stimulated with 5 mM butyrate for 24 h. Cells were then collected by scraping in PBS and cell suspension was centrifuged (10 min at 4000 RPM in benchtop centrifuge). Supernatant was discarded and pellet gently resuspended in 50 mM Tris-HCl, pH 7.4 by mixing with an Ultra Turrax homogenizer. The suspension was centrifuged at 12,400 RPM (Sorvall F14S-6x250Y) for 10 minutes and the supernatant discarded. The pellet was homogenized in 5 mM Tris-HCl, pH 7.4 using an Ultra Turrax homogenizer and centrifuged again (13,000 RPM, 20 min, 4° C.). The final pellet was resuspended in 50 mM Tris-HCl, pH 7.4 and stored at −80° C. in appropriate aliquots before use. Protein concentration was determined by the Bradford method (Bio-Rad, USA) with bovine serum albumin as standard.
Measurement of mGluR2 negative allosteric modulatory activity of test compounds was performed as follows. Test compounds and glutamate were diluted in assay buffer containing 10 mM HEPES acid, 10 mM HEPES salt, pH 7.4, 100 mM NaCl, 3 mM MgCl2 and 10 μM GDP. Human mGlu2 receptor-containing membranes were thawed on ice and diluted in assay buffer supplemented with 18 μg/ml saponin. […] After addition of [^35S]GTPγS (f.c. 0.1 nM), assay mixtures were shaken briefly and further incubated to allow [^35S]GTPγS incorporation on activation (30 minutes, 30° C.). Final assay mixtures contained 7 μg of membrane protein in 10 mM HEPES acid, 10 mM HEPES salt, pH 7.4, 100 mM NaCl, 3 mM MgCl2, 10 μM GDP and 10 μg/ml saponin. Total reaction volume was 200 μl. Reactions were terminated by rapid filtration through Unifilter-96 GF/B plates (Perkin Elmer, Massachusetts, USA) using a 96-well filtermate universal harvester. Filters were washed 6 times with ice-cold 10 mM NaH2PO4/10 mM Na2HPO4, pH 7.4. Filters were then air-dried, and 30 μl of liquid scintillation cocktail (Microscint-O) was added to each well. Membrane-bound radioactivity was counted in a Topcount.
The concentration-response curves of representative compounds of the present invention were generated using the Lexis software interface (developed at J&J). Data were calculated as % of the control glutamate response, defined as the response that is generated upon addition of an EC80-equivalent concentration of glutamate.
A general note: GTPγS is a poorly hydrolysed GTP analogue; its binding reports G protein activation.

Setting [1] is: membranes from CHO cells transfected with human mGlu2 receptor, glutamate 60 μM, pIC50 = −log IC50 (M).

T1 sequence (Q14416 19-872): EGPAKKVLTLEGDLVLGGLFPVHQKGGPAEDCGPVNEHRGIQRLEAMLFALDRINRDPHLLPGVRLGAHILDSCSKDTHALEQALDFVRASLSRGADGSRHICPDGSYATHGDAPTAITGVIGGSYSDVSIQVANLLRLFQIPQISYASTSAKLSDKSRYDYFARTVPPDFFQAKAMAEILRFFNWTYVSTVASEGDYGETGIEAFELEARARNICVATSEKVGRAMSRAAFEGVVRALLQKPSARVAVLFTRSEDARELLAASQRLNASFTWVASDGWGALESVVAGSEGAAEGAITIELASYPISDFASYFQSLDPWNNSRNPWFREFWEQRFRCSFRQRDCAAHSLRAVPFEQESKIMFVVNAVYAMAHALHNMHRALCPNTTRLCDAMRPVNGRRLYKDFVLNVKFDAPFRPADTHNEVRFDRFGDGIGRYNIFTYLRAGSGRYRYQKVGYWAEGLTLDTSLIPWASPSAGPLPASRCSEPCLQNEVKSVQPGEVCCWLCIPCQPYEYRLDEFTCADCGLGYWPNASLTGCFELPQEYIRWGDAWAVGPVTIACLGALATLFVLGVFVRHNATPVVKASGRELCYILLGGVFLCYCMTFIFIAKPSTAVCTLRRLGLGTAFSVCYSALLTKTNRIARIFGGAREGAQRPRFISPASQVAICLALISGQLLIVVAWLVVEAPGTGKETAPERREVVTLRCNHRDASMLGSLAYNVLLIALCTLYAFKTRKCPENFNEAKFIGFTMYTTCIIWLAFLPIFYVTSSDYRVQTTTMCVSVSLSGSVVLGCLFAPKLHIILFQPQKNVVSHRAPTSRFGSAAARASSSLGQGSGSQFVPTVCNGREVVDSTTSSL

A word on the Emax: it is the maximal effect, on the per cent scale that the assay sets. `Cc1cc(-c2cnn3c2C(=O)N(c2ccc(Cl)c(Cl)c2)CC3CF)ccn1` (single isomer, unassigned) [compound 115]: the Emax came out at 108%. Besides, the IC50 under setting [1] was 7.08e-09 M.
As to `Cc1cc(-c2cnn3c2C(=O)N(c2ccc(Cl)c(Cl)c2)CC3CF)ccn1` (single isomer, unassigned) [compound 116], the “GTPγS - hmGluR2 anGT Emax” value was 105%. For the same compound, the IC50 under setting [1] is 5.62e-07 M.
For the compound `COCC1CN(c2ccc(Cl)c(Cl)c2)C(=O)c2c(-c3ccnc(C)c3)cnn21` (single isomer, unassigned) [compound 118], the Emax stood at 105%. Also, the IC50 under setting [1] was 1.95e-08 M.
Regarding `COCC1CN(c2ccc(Cl)c(Cl)c2)C(=O)c2c(-c3ccnc(C)c3)cnn21` (single isomer, unassigned) [compound 119], the “GTPγS - hmGluR2 anGT Emax” value is 100%. Besides, the IC50 under setting [1] was 2.51e-06 M.
With `COCC1CN(c2ccc(C(F)(F)F)cc2)C(=O)c2c(-c3ccnc(C)c3)cnn21` (single isomer, unassigned) [compound 120], the “GTPγS - hmGluR2 anGT Emax” value is 106%. Also, under setting [1], the IC50 was 6.46e-08 M.
For `COCC1CN(c2ccc(C(F)(F)F)cc2)C(=O)c2c(-c3ccnc(C)c3)cnn21` (single isomer, unassigned) [compound 121], in that order: 75% and 1.62e-05 M.
As for `CNc1cc(-c2cnn3c2C(=O)N(c2ccc(Cl)c(Cl)c2)CC3CF)ccn1` (single isomer, unassigned) [compound 184], the Emax is 105%. Moreover, the IC50 under setting [1] was 2.75e-07 M.
`CNc1cc(-c2cnn3c2C(=O)N(c2ccc(Cl)c(Cl)c2)CC3CF)ccn1` (single isomer, unassigned) [compound 185]: the “GTPγS - hmGluR2 anGT Emax” value was determined as 104%. For the same compound, the IC50 under setting [1] is 6.03e-09 M.
With `Cc1cc(-c2cnn3c2C(=O)N(c2ccc(Cl)c(Cl)c2)C[C@@H]3C)ccn1` [6a], the “GTPγS - hmGluR2 anGT Emax” value was 112%. In addition, the IC50 under setting [1] is 4.79e-09 M.
For `CCOc1ccc(N2C[C@H](C)n3ncc(-c4ccnc(C)c4)c3C2=O)cc1Cl` [compound 17], the Emax is 104%. For the same compound, the IC50 under setting [1] is 4.79e-08 M.
Turning to `COc1ccc(N2C[C@H](C)n3ncc(-c4ccnc(C)c4)c3C2=O)cc1Cl` [compound 20], the Emax was 104%. For the same compound, under setting [1], the IC50 was 8.71e-08 M.
As for `Cc1cc(-c2cnn3c2C(=O)N(c2ccc(F)c(F)c2)C[C@@H]3C)ccn1` [compound 25], the Emax was 103%. Also, the IC50 under setting [1] is 1.45e-07 M.
`Cc1cc(-c2cnn3c2C(=O)N(c2ccc(F)cc2)C[C@@H]3C)ccn1` [compound 28]: the Emax is 105%. Besides, under setting [1], the IC50 was 2.4e-07 M.
Regarding `C[C@H]1CN(c2ccc(C(F)(F)F)cc2)C(=O)c2c(-c3cccnc3)cnn21` [compound 32], the Emax amounted to 101%. Besides, the IC50 under setting [1] was 5.62e-07 M.
Turning to `Cc1cc(-c2cnn3c2C(=O)N(c2ccc4c(c2)OCCO4)C[C@@H]3C)ccn1` [compound 42], the Emax came to 102%. The IC50 under setting [1] is 3.09e-06 M.
For `Cc1cc(-c2cnn3c2C(=O)N(c2ccc(C(F)(F)F)c(OCCF)c2)C[C@@H]3C)ccn1` [compound 48], the Emax stood at 100%. Further, the IC50 under setting [1] is 7.76e-09 M.
Regarding `Cc1cc(-c2cnn3c2C(=O)N(c2cccc(OC(F)(F)F)c2)C[C@@H]3C)ccn1` [compound 58], the Emax is 107%. Further, the IC50 under setting [1] was 2.19e-08 M.
In the case of `Cc1cc(-c2cnn3c2C(=O)N(c2cc(F)cc(Cl)c2)C[C@@H]3C)ccn1` [compound 63], the Emax worked out at 105%. Further, under setting [1], the IC50 is 3.39e-08 M.
With `Cc1cc(-c2cnn3c2C(=O)N(c2ccc(C(C)C)cc2)C[C@@H]3C)ccn1` [compound 65], the Emax was 106%. Also, the IC50 under setting [1] is 4.47e-08 M.
With `CCCc1ccc(N2C[C@H](C)n3ncc(-c4ccnc(C)c4)c3C2=O)cc1` [compound 66], the Emax came to 107%. In addition, under setting [1], the IC50 is 4.07e-08 M.
`Cc1cc(-c2cnn3c2C(=O)N(c2ccc(F)c(C(F)(F)F)c2)C[C@@H]3C)ccn1` [compound 67, (7S)-5-[4-Fluoro-3-(trifluoromethyl)phenyl]-7-methyl-3-(2-methyl-4-pyridyl)-6,7-dihydropyrazolo[1,5-a]pyrazin-4-one]: the Emax amounted to 104%. For the same compound, the IC50 under setting [1] is 6.31e-08 M.
Turning to `Cc1cc(-c2cnn3c2C(=O)N(c2cc(F)cc(OC(F)F)c2)C[C@@H]3C)ccn1` [compound 69], the Emax is 103%. In addition, the IC50 under setting [1] is 5.37e-08 M.
For the compound `CCC1CN(c2ccc(C(F)(F)F)cc2)C(=O)c2c(-c3ccnc(C)c3)cnn21` (stereo not shown) [compound 70], the Emax is 106%. For the same compound, the “GTPγS - hmGluR2 anGT pIC50” value under setting [1] is listed as 7.1.
Consider `Cc1cc(-c2cnn3c2C(=O)N(c2ccc(C#N)c(F)c2)C[C@@H]3C)ccn1` [compound 75], for which the Emax was determined as 100%. Further, the IC50 under setting [1] is 2.75e-07 M.
In the case of `Cc1cc(-c2cnn3c2C(=O)N(c2ccc(C)c(F)c2)C[C@@H]3C)ccn1` [compound 76], the Emax is 100%. Under setting [1], the IC50 is 2.82e-07 M.
As to `Cc1cc(-c2cnn3c2C(=O)N(c2ccccc2)C[C@@H]3C)ccn1` [compound 86], the Emax was found to be 102%. The IC50 under setting [1] was 1e-06 M.
`COc1cc(-c2cnn3c2C(=O)N(c2ccc(Cl)cc2)C[C@@H]3C)ccn1` [compound 89]: the Emax turned out to be 104%. In addition, the IC50 under setting [1] was 4.17e-08 M.
For `C[C@H]1CN(c2ccc(C(F)(F)F)c(Cl)c2)C(=O)c2c(-c3ccnc(N4CC(F)C4)c3)cnn21` [compound 92], in that order: 107% and 2.95e-09 M.
In the case of `CNc1cc(-c2cnn3c2C(=O)N(c2ccc(Cl)c(Cl)c2)CC3CF)ccn1` (stereo not shown) [compound 93], the Emax came out at 105%. The IC50 under setting [1] was 1.82e-08 M.
Turning to `C[C@H]1CN(c2ccc(C(F)(F)F)cc2)C(=O)c2c(-c3ccnc(N4CC(F)C4)c3)cnn21` [compound 94], the Emax stood at 108%. Besides, under setting [1], the IC50 is 5.5e-08 M.
`C[C@H]1CN(c2ccc(C(F)(F)F)c(Cl)c2)C(=O)c2c(-c3ccnc(N4CCC4)c3)cnn21` [compound 96]: the Emax stood at 108%. Besides, under setting [1], the IC50 was 1.23e-09 M.
For `C[C@H]1CN(c2ccc(Cl)c(Cl)c2)C(=O)c2c(-c3ccnc(N4CCC4)c3)cnn21` [compound 97], the Emax is 104%. The IC50 under setting [1] was 1.66e-09 M.
`Cc1cc(-c2cnn3c2C(=O)N(c2ccc(C(F)(F)F)c(CF)c2)C[C@@H]3C)ccn1` [compound 98]: the Emax was found to be 111%. Besides, the IC50 under setting [1] was 6.46e-09 M.
For `CC(=O)N1CCN(c2cc(-c3cnn4c3C(=O)N(c3ccc(C(F)(F)F)cc3)C[C@@H]4C)ccn2)CC1` [compound 106, (7S)-3-[2-(4-Acetylpiperazin-1-yl)-4-pyridyl]-7-methyl-5-[4-(trifluoromethyl)phenyl]-6,7-dihydropyrazolo[1,5-a]pyrazin-4-one], in that order: 109% and 6.03e-07 M.
As to `C[C@H]1CN(c2ccc(C(F)(F)F)cc2)C(=O)c2c(-c3ccnc(N4CCCCC4)c3)cnn21` [compound 107], the Emax came out at 114%. Moreover, under setting [1], the IC50 was 1.78e-08 M.
As to `Cc1cc(-c2cnn3c2C(=O)N(c2ccc(C(C)C(F)(F)F)cc2)C[C@@H]3C)ccn1` (stereo partly shown) [compound 113], the Emax amounted to 103%. Further, the IC50 under setting [1] was 9.12e-08 M.
For `C[C@H]1CN(c2ccc(Cl)c(Cl)c2)C(=O)c2c(-c3ccnc(CF)c3)cnn21` [compound 117], in that order: 109% and 7.59e-09 M.
As for `C[C@H]1CN(c2ccc(Cl)c(Cl)c2)C(=O)c2c(-c3ccnc(C4CC4)c3)cnn21` [compound 122], the Emax was determined as 108%. The IC50 under setting [1] was 3.72e-09 M.
